US6172185A, “Antimicrobial cationic peptide derivatives of bactenecin” (priority 1998, dated 2001)
Where a SMILES comes first, the peptide text is derived from it. Where no end group is shown, it is not given here.

How the values were obtained:
E.coli UB1005 = test: MIC, modified two-fold microtitre broth dilution; format: cell-based, Escherichia coli
From the text: (§1) Bacterial strains for antimicrobial activity testing included Escherichia coli UB1005 and its antibiotic supersusceptible derivative DC2 (Richmond et al., Antimicrob. Agents Chemother. 10:215, 1976), Pseudomonas aeruginosa K799 and its antibiotic-supersusceptible derivative Z61 (Angus et al., Antimicrob. Agents Chemother. 21:299, 1982), Salmonella typhimurium 14028s and its defensin-supersusceptible derivative MS7953s (Fields et al., Science, 243:1059, 1989), Staphylococcus aureus ATCC25923 and a clinical isolate Staphylococcus aureus SAP1007. Other Gram-positive bacterial strains include Staphylococcus epidermidis (clinical isolate) and Enterococcus faecalis ATCC29212, Listeria monocytogenes, Corynebacterium xerosis, Streptococcus pneumoniae ATTC49619, Streptococcus pyogenes ATTC19615, Streptococcus mitis.
(§2) The minimal inhibitory concentration (MIC) of peptides was determined by a modified two-fold microtitre broth dilution method modified from that of Steinberg et al (Steinberg, Antimicrob. Agents Chemother. 41:1738, 1997). Using the classical method (Amsterdam, Antibiotics in Laboratory Medicine (Lorian, V., ed) pp. 72-78, 1991), higher concentrations of peptides tend to precipitate in the LB broth, thus the concentrations of peptides in the sequential wells are not accurate. Also the peptides stick to the most readily available (tissue-culture treated polystyrene) 96-well microtitre plates. Therefore the 2× series of dilutions was performed in Eppendoff tubes (polypropylene) before mixing with LB broth. Serial of two fold dilutions of peptides ranging from 640 μg/ml to 1.25 μg/ml were made in 0.2% BSA, 0.01% acetic acid buffer in the Eppendoff tubes. Ten μl of each concentration was added to each corresponding well of a 96-well microtiter plate (polypropylene cluster; Costar Corporation, Cambridge, Mass.). Bacteria were grown overnight and diluted 10-5 into fresh LB broth or Todd Hewitt broth for Streptococcus. LB medium contained 10 g/1l tryptone and 5 g/yeast extract, with no salt. Todd Hewitt contained 500 g/l beef heart infusion, 20 g/l bacto neopeptone, 2 g/l bacto dextrose, 2 g/l sodium chloride, 0.4 g/l disodium phosphate, 2.5 g/l sodium carbonate. One hundred […] containing about 10^4-10^5 CFU/ml of tested bacteria was added to each well. The plate was incubated at 37° C. overnight. The MIC was taken as the concentration at which greater than 90% of growth inhibition was observed.

P.aeruginosa = test: MIC, modified two-fold microtitre broth dilution; format: cell-based, Pseudomonas aeruginosa
From the text: as §1, §2

S.typhimurium = test: MIC, modified two-fold microtitre broth dilution; format: cell-based, Salmonella typhimurium
From the text: as §1, §2

Staph. aureus = test: MIC, modified two-fold microtitre broth dilution; format: cell-based, Staphylococcus aureus
From the text: as §1, §2

Staph. epidermidis = test: MIC, modified two-fold microtitre broth dilution; format: cell-based, Staphylococcus epidermidis
From the text: as §1, §2

E.facaelis = test: MIC, modified two-fold microtitre broth dilution; format: cell-based, Enterococcus faecalis
From the text: as §1, §2

Listeria monocytogenes = test: MIC, modified two-fold microtitre broth dilution; format: cell-based
From the text: as §1, §2

C. xerosis = test: MIC, modified two-fold microtitre broth dilution; format: cell-based, Corynebacterium xerosis
From the text: as §1, §2

Strep. pyogenes = test: MIC, modified two-fold microtitre broth dilution; format: cell-based, Streptococcus pyogenes; conditions: for MIC Strep. pyogeness: Table IID, linear (Group 2): reduced forms of the peptides, Bac (Oxidized) as comparator
From the text: as §1, §2

Strep. mitis = test: MIC, modified two-fold microtitre broth dilution; format: cell-based, Streptococcus mitis; conditions: for MIC Strep. mitis: Table IID, linear (Group 2): reduced forms of the peptides, Bac (Oxidized) as comparator
From the text: as §1, §2

Strep. pneumoniae = test: MIC, modified two-fold microtitre broth dilution; format: cell-based, Streptococcus pneumoniae; conditions: for MIC Strep. pneumonia: Table IID, linear (Group 2): reduced forms of the peptides, Bac (Oxidized) as comparator; for MIC S. pneumoniae: Table IVB, non-linear hydrophobicity modification derivatives; for MIC S. pneumonia: Table IIIB, non-linear positive-charge modification derivatives
From the text: as §1, §2

[1] = Table IIC, linear (Group 2): reduced forms of the peptides, Bac (Oxidized) as comparator
[2] = Table IVA, non-linear hydrophobicity modification derivatives
[3] = Table IID, linear (Group 2): reduced forms of the peptides, Bac (Oxidized) as comparator
[4] = Table IVB, non-linear hydrophobicity modification derivatives
[5] = table IIA, non-linear positive-charge modification derivatives
[6] = Table IIIB, non-linear positive-charge modification derivatives

Row | Compound | MIC E.coli UB1005 (E.coli UB1005; [1]) [µg/mL] | MIC P. aeruginosa (P.aeruginosa; [1]) [µg/mL] | MIC S. typhimurium (S.typhimurium; [1]) [µg/mL] | MIC Staph. aureus (Staph. aureus; [3]) [µg/mL] | MIC Staph. epidermidis (Staph. epidermidis; [3]) [µg/mL] | MIC E.facaelis (E.facaelis; [3]) [µg/mL] | MIC Listeria (Listeria monocytogenes; [3]) [µg/mL] | MIC C. xerosis (C. xerosis; [3]) [µg/mL] | MIC Strep. pyogeness (Strep. pyogenes) [µg/mL] | MIC Strep. mitis (Strep. mitis) [µg/mL] | MIC Strep. pneumonia (Strep. pneumoniae) [µg/mL] | Minimal Agglutinating Concentration, Oxidized Form (Human Red Blood Cells) [µg/mL] | Minimal Agglutinating Concentration, Reduced Form (Human Red Blood Cells) [µg/mL] | MIC E.coli UB1005 (E.coli UB1005; [5]) [µg/mL] | MIC P. aeruginosa (P.aeruginosa; [5]) [µg/mL] | MIC S. typhimurium (S.typhimurium; [5]) [µg/mL] | MIC Staph. aureus (Staph. aureus; [6]) [µg/mL] | MIC Staph. epidermidis (Staph. epidermidis; [6]) [µg/mL] | MIC E.facaelis (E.facaelis; [6]) [µg/mL] | MIC Listeria (Listeria monocytogenes; [6]) [µg/mL] | other results
1 | RRLCRIVWVIRVCRR [Bac 2R, W] | > 64 | > 64 | > 64 | > 64 | 32 | > 64 | 4 | 2 | 32 | 2 | 64 | 32 | 8 | – | – | – | – | – | – | – | MIC E.coli UB1005 (E.coli UB1005; [2]): 2 µg/mL; MIC P. aeruginosa (P.aeruginosa; [2]): 2 µg/mL; MIC S. typhimurium (S.typhimurium; [2]): 2 µg/mL; MIC Staph. aureus (Staph. aureus; [4]): 2 µg/mL; MIC Staph. epidermidis (Staph. epidermidis; [4]): 1 µg/mL; MIC E.facaelis (E.facaelis; [4]): 2 µg/mL; MIC Listeria (Listeria monocytogenes; [4]): 0.25 µg/mL; MIC C. xerosis (C. xerosis; [4]): 0.25 µg/mL; MIC Strep. pyogenes (Strep. pyogenes; [4]): 1 µg/mL; MIC S. mitis (Strep. mitis; [4]): 0.25 µg/mL; MIC S. pneumoniae (Strep. pneumoniae): 8 µg/mL; concentration causing agglutination of human red blood cells (Human Red Blood Cells): 16000 to 32000 ng/mL
2 | RRRCPIVVIRVCRR [Bac 3R, P] | 8 | > 64 | > 64 | > 64 | 16 | 64 | 2 | 0.5 | 16 | 0.5 | > 64 | 64 | 16 | 2 | 8 | 8 | > 64 | 16 | 32 | 0.5 | MIC C. xerosis (C. xerosis; [6]): 4 µg/mL; MIC Strep. pyogenes (Strep. pyogenes; [6]): 8 µg/mL; MIC S. mitis (Strep. mitis; [6]): 1 µg/mL; MIC S. pneumonia (Strep. pneumoniae): > 64 µg/mL
3 | RRLCRIVVIRVCRR [Bac 2R] | 4 | 16 | 32 | > 64 | 4 | 4 | 0.5 | 0.25 | 16 | 0.5 | > 64 | 64 | 32 | 2 | 4 | 4 | 64 | 8 | 32 | < 0.125 | MIC against P. aeruginosa, times better than native bactenecin (P.aeruginosa): 2 X; MIC against S. typhimurium, times better than native bactenecin (S.typhimurium): 2 X; MIC C. xerosis (C. xerosis; [6]): 1 µg/mL; MIC Strep. pyogenes (Strep. pyogenes; [6]): 8 µg/mL; MIC S. mitis (Strep. mitis; [6]): 0.5 µg/mL; MIC S. pneumonia (Strep. pneumoniae): > 64 µg/mL
4 | KKCPIVVIRVCK [Bac 3K, P] | > 64 | > 64 | > 64 | > 64 | > 64 | > 64 | 4 | 4 | 64 | 0.25 | > 64 | > 64 | 64 | 16 | > 64 | 32 | > 64 | > 64 | > 64 | 8 | MIC C. xerosis (C. xerosis; [6]): 16 µg/mL; MIC Strep. pyogenes (Strep. pyogenes; [6]): > 64 µg/mL; MIC S. mitis (Strep. mitis; [6]): 2 µg/mL; MIC S. pneumonia (Strep. pneumoniae): > 64 µg/mL
5 | RRCPIVVIRVCR-NH2 (cysteine pairing not given here) [Bac R, P-NH2] | – | – | – | – | – | – | – | – | – | – | – | > 64 | – | 2 | 16 | 16 | 32 to 64 | 32 | > 64 | 1 | MIC C. xerosis (C. xerosis; [6]): 2 µg/mL; MIC Strep. pyogenes (Strep. pyogenes; [6]): 16 µg/mL; MIC S. mitis (Strep. mitis; [6]): 2 µg/mL; MIC S. pneumonia (Strep. pneumoniae): > 64 µg/mL
6 | CC[C@H](C)[C@@H]1NC(=O)[C@H](C(C)C)NC(=O)[C@H](C(C)C)NC(=O)[C@H]([C@@H](C)CC)NC(=O)[C@@H]2CCCN2C(=O)[C@@H](NC(=O)[C@H](CCCNC(=N)N)NC(=O)[C@@H](N)CCCNC(=N)N)CSSC[C@@H](C(=O)N[C@@H](CCCNC(=N)N)C(=O)O)NC(=O)[C@H](C(C)C)NC(=O)[C@H](CCCNC(=N)N)NC1=O [Bac R, P, RRCPIVVIRVCR] (HELM PEPTIDE1{R.R.C.P.I.V.V.I.R.V.C.R}$PEPTIDE1,PEPTIDE1,3:R3-11:R3$$$V2.0) | – | – | – | – | – | – | – | – | – | – | – | > 64 | – | – | – | – | – | – | – | – | –
7 | RLSRIVVIRVCR-NH2 [Bac S-NH2, RLSRIVVIRVCR-NH2] | – | – | – | – | – | – | – | – | – | – | – | > 64 | – | – | – | – | – | – | – | – | –
8 | RLCPRVRIRVCR-NH2 (cysteine pairing not given here) [Bac 2R, P-NH2] | – | – | – | – | – | – | – | – | – | – | – | > 32 | – | 4 | 16 | 32 | > 32 | 16 | > 32 | – | –
9 | RLCRIVPVIRVCR [Bac P] | 16 | 32 | 64 | > 64 | 16 | 32 | 4 | 2 | 32 | 2 | > 64 | 64 | 64 | – | – | – | – | – | – | – | MIC E.coli UB1005 (E.coli UB1005; [2]): 32 µg/mL; MIC P. aeruginosa (P.aeruginosa; [2]): > 64 µg/mL; MIC S. typhimurium (S.typhimurium; [2]): > 64 µg/mL; MIC Staph. aureus (Staph. aureus; [4]): 64 µg/mL; MIC Staph. epidermidis (Staph. epidermidis; [4]): 64 µg/mL; MIC E.facaelis (E.facaelis; [4]): > 64 µg/mL; MIC Listeria (Listeria monocytogenes; [4]): 2 µg/mL; MIC C. xerosis (C. xerosis; [4]): 8 µg/mL; MIC Strep. pyogenes (Strep. pyogenes; [4]): 64 µg/mL; MIC S. mitis (Strep. mitis; [4]): 4 µg/mL; MIC S. pneumoniae (Strep. pneumoniae): > 64 µg/mL
10 | RLARIVVIRVAR-NH2 [Bac 2A-NH2, RLARIVVIRVAR-NH2] | – | – | – | – | – | – | – | – | – | – | – | > 64 | – | – | – | – | – | – | – | – | –
11 | RICRIVVIRCIR-NH2 (cysteine pairing not given here) [Bac 2I-NH2] | – | – | – | – | – | – | – | – | – | – | – | 32 | – | 4 | 16 | 8 | 32 | 8 | > 32 | – | –
12 | RLSRIVVIRVSR-NH2 [Bac 2S-NH2, RLSRIVVIRVSR-NH2] | – | – | – | – | – | – | – | – | – | – | – | > 64 | – | – | – | – | – | – | – | – | –
